Here are results for twelve compounds from PMC4293787 (The Scientific World Journal, 2014).

The test system of one data set is hepatitis B virus (HBV). In words: Antiviral test against HBV in HepG 2.2.2.15 cells. Type of data set: cell-based, strain ayw1. More on the design: SI50: unit not given beside the values. Particulars: for SI50: HBV, HepG 2.2.2.15 cells.
For data set [1], the system named is influenza A H1N1 virus. As to the kind of experiment: Antiviral test against influenza A H1N1 in MDCK cells, visual (cytopathic effect). Type of data set: cell-based, strain California 07/2009. More on the design: SI50: unit not given beside the values. The note with it: for EC50: Influenza A virus, H1N1, MDCK. Background: Protection from cytopathic effect is a common read-out in antiviral testing.

The subject of data set [2] is influenza A H1N1 virus. In words: Antiviral test against influenza A H1N1 in MDCK cells, neutral red (cytopathic effect). Type of data set: cell-based, strain California 07/2009. Also on record: SI50: unit not given beside the values. The note with it: for EC50: Influenza A virus, H1N1, MDCK.
Data set [3] can be described thus: in vitro. The note with it: dog, MDCK cells.
A short description of data set [4]: in vitro. The note with it: dog, MDCK cells. The source holds these as a separate data set.
A short description of data set [5]: in vitro. Particulars: human.
Data set [6] in a line: in vitro. The note with it: human. This is another data set of the same source.
The nature of data set [7]: Toxicity (CC50) in the HSV-1 test, HFF cells (crystal violet). The note with it: human.
A short description of data set [8]: Toxicity (CC50) in the HSV-2 test, HFF cells (crystal violet). Particulars: human.
Data set [9] relates to herpes simplex virus 2 (HSV-2). As to the kind of experiment: Antiviral test against HSV-2 in HFF cells (crystal violet). Also on record: SI50: unit not given beside the values. Type of data set: cell-based, strain MS.
In data set [10] the test system is herpes simplex virus 1 (HSV-1). In words: microbe, parasite or virus in culture. Type of data set: cell-based, strain E-377. Also on record: SI50: unit not given beside the values. The note with it: for EC50: Human alphaherpesvirus 1, HFF.
For a further data set, the system named is vaccinia virus (VV). In words: microbe, parasite or virus in culture. Format: cell-based, strain Copenhagen. The note with it: Orthopoxvirus vaccinia, HFF.
The mark [11] stands for this setting: Hepatitis B virus, HepG2 2.2.15.

In brackets after ≈: the same amount, converted by molar mass. Like-named read-outs stand apart in the source and are kept apart here.

One may read the EC50 as the concentration at which the effect is half-maximal. Regarding `Nc1ccn([C@@H]2CS[C@H](CO)O2)c(=O)n1` [Compound 3TC, 3TC, reference compound], in the data set with hepatitis B virus (HBV) (HBV strain ayw1, drug concentration range 0.063–20 μM, 3TC control range 0.00032–0.1 μM, read-out: EC50), the EC50 was determined as 0.01 µM.

`O=C(NC1C=CC(O)C1)c1ccccn1` (stereo not drawn) [Compound 13a, N-(4-Hydroxycyclopent-2-enyl)picolinamide]: the concentration giving a half-maximal response (EC50) in the data set on influenza A H1N1 virus [1] and with influenza A H1N1 virus [2] was greater than 100 µg/mL each time. The CC50 in “in vitro [3]” and in “in vitro [4]” was greater than 100 µg/mL throughout.

What is called melting point is the temperature, or range, at which the solid turns liquid. Take `O=C(NC1C=CC(O)C1)c1cccnc1` (stereo not drawn) [Compound 13b, N-(4-Hydroxycyclopent-2-enyl)nicotinamide]: the melting point lay in the range of 125 to 127 °C. Also, the EC50 in the data set on influenza A H1N1 virus [1] is greater than 100 µg/mL. The EC50 in the data set on influenza A H1N1 virus [2] is greater than 100 µg/mL. For the same compound, the CC50 in the data set “in vitro [3]” is greater than 100 µg/mL. In the data set “in vitro [5]”, this compound returned a CC50 greater than 300 µM. Also, the CC50 in “in vitro [4]” was greater than 100 µg/mL.

As for `O=C(NC1C=CC(O)C1)c1ccncc1` (stereo not drawn) [Compound 13c, N-(4-Hydroxycyclopent-2-enyl)isonicotinamide], the melting point lay in the range of 170 to 175 °C. The compound also displayed an EC50 in the data set with influenza A H1N1 virus [1] greater than 100 µg/mL. The same compound registered a half-maximal effective concentration (EC50) in the data set with influenza A H1N1 virus [2] greater than 100 µg/mL. This compound showed a CC50 in the data set “in vitro [3]” greater than 100 µg/mL. The compound further registered a CC50 in the data set “in vitro [5]” greater than 300 µM. The CC50 in “in vitro [4]” was greater than 100 µg/mL.

The compound `O=C(NC1C=CC(O)C1)c1ccc2ccccc2n1` (stereo not drawn) [Compound 13d, N-(4-Hydroxycyclopent-2-enyl)quinoline-2-carboxamide] had a melting point of 89 to 90 °C. This compound also displayed an EC50 in the data set with influenza A H1N1 virus [1] greater than 100 µg/mL. For the same compound, in the data set with influenza A H1N1 virus [2], the 50% effective concentration (EC50) was greater than 100 µg/mL. The CC50 in “in vitro [3]” was greater than 100 µg/mL. In “in vitro [4]”, this compound had a CC50 greater than 100 µg/mL.

Turning to `O=C(NC1C=CC(O)CC1)c1ccccn1` (stereo not drawn) [Compound 14a, N-(4-Hydroxycyclohex-2-enyl)picolinamide], the EC50 with influenza A H1N1 virus [1] is greater than 100 µg/mL; in the data set on influenza A H1N1 virus [2] it was greater than 100 µg/mL; in the data set with hepatitis B virus (HBV) (setting [11]), greater than 20 µM. Also, the CC50 in “in vitro [3]” was greater than 100 µg/mL; in the data set “in vitro [4]” it was greater than 100 µg/mL; in the data set “in vitro [6]”, greater than 20 µM. Also, in the data set with hepatitis B virus (HBV), the SI50 is 1.

`O=C(NC1C=CC(O)CC1)c1cccnc1` (stereo not drawn) [Compound 14b, N-(4-Hydroxycyclohex-2-enyl)nicotinamide] yielded a melting point of 95 to 99 °C. The compound further registered a 50% effective concentration (EC50) in the data set on influenza A H1N1 virus [1] greater than 100 µg/mL. This compound yielded an EC50 in the data set with influenza A H1N1 virus [2] greater than 100 µg/mL. Also, in “in vitro [3]”, the CC50 was greater than 100 µg/mL. Moreover, the SI50 in the data set with hepatitis B virus (HBV) is given as 1. This compound also returned an EC50 with hepatitis B virus (HBV) (setting [11]) greater than 20 µM. In the data set “in vitro [4]”, this compound had a CC50 greater than 100 µg/mL. In “in vitro [6]”, the CC50 was greater than 20 µM.

Consider `O=C(NC1C=CC(O)CC1)c1ccncc1` (stereo not drawn) [Compound 14c, N-(4-Hydroxycyclohex-2-enyl)isonicotinamide], for which the melting point is 245 to 250 °C (dec.). In the data set on influenza A H1N1 virus [1], this compound returned a concentration giving a half-maximal response (EC50) greater than 100 µg/mL. The same compound came in with a 50% effective concentration (EC50) with influenza A H1N1 virus [2] greater than 100 µg/mL. Further, in the data set “in vitro [3]”, the CC50 is greater than 100 µg/mL. In addition, the SI50 in the data set on hepatitis B virus (HBV) was found to be 1. Also, in the data set on hepatitis B virus (HBV) (setting [11]), it took 9.64 µM to reach a half-maximal effect (EC50). The CC50 in “in vitro [4]” was greater than 100 µg/mL. The compound further showed a CC50 in “in vitro [6]” greater than 100 µM.

With `O=C(NC1C=CC(O)CC1)c1ccc2ccccc2n1` (stereo not drawn) [Compound 14d, N-(4-Hydroxycyclohex-2-enyl)quinoline-2-carboxamide], the melting point fell in the range of 80 to 84 °C. For the same compound, in the data set with influenza A H1N1 virus [1], the EC50 stood at 37 µg/mL (≈ 138 µM). The compound further showed an SI50 in the data set on influenza A H1N1 virus [1] (influenza A H1N1, MDCK cells, visual) greater than 2.7. In the data set on influenza A H1N1 virus [2], this compound showed an EC50 of 54 µg/mL (≈ 201 µM). The compound further had an SI50 in the data set on influenza A H1N1 virus [2] (influenza A H1N1, MDCK cells, neutral red) of 1.4. In the data set with hepatitis B virus (HBV), the SI50 is recorded as 1. Also, the EC50 in the data set with hepatitis B virus (HBV) (setting [11]) is greater than 20 µM. Moreover, in the data set “in vitro [6]”, the CC50 is greater than 20 µM.

For `NC(=O)c1ncn([C@@H]2O[C@H](CO)[C@@H](O)[C@H]2O)n1` [Ribavirin, reference compound], the figures for the SI50 in the data set on influenza A H1N1 virus [1] and in the data set with influenza A H1N1 virus [2] were greater than 31 and 14, respectively. In addition, the concentration giving a half-maximal response (EC50) worked out at 3.2 µg/mL (≈ 13.1 µM) in the data set with influenza A H1N1 virus [1] and 3.1 µg/mL (≈ 12.7 µM) in the data set on influenza A H1N1 virus [2].

Take `Nc1nc2c(ncn2COCCO)c(=O)[nH]1` [acyclovir]: the CC50 in data set [7] and in [8] was greater than 100 µM each time. The SI50 is greater than 27 in data set [9] and greater than 30 in data set [10]. Moreover, the concentration giving a half-maximal response (EC50) in data set [9] (Human alphaherpesvirus 2, HFF) was found to be 3.7 µM; in [10] it was 3.29 µM.

In the case of `Nc1ccn(C[C@@H](CO)OCP(=O)(O)O)c(=O)n1` [cidofovir], in data set [7], the CC50 was greater than 200 µM. Further, the SI50 in the data set with hepatitis B virus (HBV) is greater than 1; in data set [10] (HSV-1, HFF cells) it was greater than 1. Moreover, the EC50 turned out to be 180 µM in the data set with hepatitis B virus (HBV) (setting [11]), 180 µM in data set [10] and 6.07 µM with vaccinia virus (VV).
